Data published in the METLIN SMRT retention time set (Domingo-Almenara et al. 2019).

Experiment: gradient 5% acetonitrile 3 min, to 50% in 2 min, to 85% in 15 min, held 3 min, 100 µL/min
Settings: column: Zorbax Extend-C18 2.1 x 50 mm; eluents: water / acetonitrile, 0.1% formic acid
How it was run: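 A Zorbax Extend-C18 column (2.1 × 50 mm, 1.8 μm) run at 100 μL/min with water and acetonitrile, both containing 0.1% formic acid, separated mixtures of ~100 pure standards. The HPLC was coupled to a quadrupole time-of-flight mass spectrometer operated in positive and negative ionization mode, with dead and dwell volumes of 40 μL and 900 μL. Each retention time was taken from a computationally picked adduct peak that was then manually inspected.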

RP-LC retention time [s] | Compound
627 | Cc1cccc(NC(=O)N2CC(Cc3nncn3C(C)C)C2)c1C
892 | Cc1cc(C)cc(C(=O)N2CC3CN(S(=O)(=O)c4ccccc4)CC(C2)O3)c1
904 | CCN1C(=O)COc2ccc(-c3noc(CNS(=O)(=O)c4ccc(Cl)cc4)n3)cc21
873 | O=C(NC1CCCC1)c1ccc2c(c1)N(Cc1ccccc1)C(=O)CO2
768 | CCN(CC)C(=O)c1ccc2c(c1)N(CC(=O)NC1CCCCCC1)C(=O)CO2
550 | Cc1cc(C)c2c(N3CCCCC3)nc(C(=O)NCCN3CCOCC3)nc2n1
954 | CCCOC(=O)C1=C(C)NC2=C(C(=O)C(C(=O)OC)C(C)C2)C1c1ccccc1F (centres undefined)
596 | O=C(NCC1(N2CCOCC2)CCOC1)Nc1ccccc1C(F)(F)F (centres undefined)
754 | O=C(CCn1cnc2cc(-c3noc(-c4cccc(Cl)c4)n3)ccc21)N1CCOCC1
615 | COc1ccc(C(=O)Nc2ccc3c(c2)N(C(=O)C2CCCO2)CC3)c(OC)c1OC (centres undefined)
994 | Cc1cccc(-c2nnc(-c3cc(S(=O)(=O)N(C)C)ccc3F)o2)c1
654 | CCCN(Cc1ccc(OC)cc1)Cc1cc(=O)n2cc(Cl)ccc2n1
652 | Cc1nc(N2CCN(c3ccccn3)CC2)nc2c1C(=O)CC(C)C2 (centres undefined)
872 | O=C(c1cc2ccccc2o1)N1CCCC(c2nnc(C(F)(F)F)o2)C1 (centres undefined)
656 | Cn1c(N2CCN(C(=O)c3ccc(F)c(F)c3)CC2)cc(=O)n(C)c1=O
1090 | CCc1cc(=O)n(CC(=O)Nc2ccccc2)c(-c2ccccc2)n1
1210 | Cc1ccc(C)c(-c2cc3c(=O)n(Cc4nc(-c5ccc(F)cc5)no4)ncn3n2)c1
575 | O=C(NCCc1ccccc1)N1CCc2nc[nH]c2C1
626 | Cc1ccc(CNC(=O)C2=CCN(Cc3cccc(F)c3)CC2)o1
696 | CCOc1ccc(CNC(=O)C2CCN(S(=O)(=O)c3cn(CC)cn3)CC2)cc1
596 | CCOc1ccc(S(=O)(=O)Nc2ccc3nc(N4CCN(C)CC4)cc(C(=O)O)c3c2)cc1
733 | COc1ccc(CNC(=O)C2(C)CCN(C(=O)Nc3cc(OC)c(OC)c(OC)c3)CC2)cc1
785 | Cc1nnc2c(NC(=O)Cc3cccc(C(F)(F)F)c3)cccn12

RP-LC retention time [s] | Compound
676 | COc1ccc(NC(=O)N2CCC(c3nc(C(=O)N(C)C)c(C)o3)CC2)cc1
776 | CCC(C)NC(=O)c1cc(COc2ccc(NC(=O)C(C)C)cc2)on1 (centres undefined)
809 | Cc1csc(-c2cc(S(=O)(=O)NC3CC3)c(C)n2C)n1
640 | CCN1CCCC1CNC(=O)C1c2ccccc2C(=O)N(CCOC)C1c1ccc(F)cc1 (centres undefined)
805 | NC(=O)c1oc2ccccc2c1NC(=O)c1cc(=O)c2ccccc2o1
769 | Cc1ccc(-n2c(C)c(C)c3c(=O)n(CC(=O)NC4CC4)cnc32)cc1
719 | CC(C)n1c(=O)c(Nc2cc(F)cc(F)c2)nc2ccncc21
658 | Cc1ccc(S(=O)(=O)c2ccc(C(=O)N3CCN(c4ccccn4)CC3)cn2)cc1C
739 | CC(C)C(=O)Nc1nc(-c2ccc3c(c2)NC(=O)CO3)cs1
975 | COc1ccc(NC(=O)CN2c3ccc(F)cc3-c3ccccc3S2(=O)=O)c(OC)c1
614 | COc1ccc(CC(=O)N2C[C@@H]3C[C@H]2C[C@@H]3NC(=O)c2cccnc2)cc1Cl
1110 | CCN1C(=O)COc2ccc(-c3noc(COc4ccc(Cl)cc4)n3)cc21
1080 | CCCn1c2ccccc2c2nnc(SCC(=O)Nc3nc(-c4ccccc4)cs3)nc21
1120 | O=C(NCc1ccc2c(c1)OCO2)c1c(O)c2cccnc2n(-c2ccc(F)cc2)c1=O
952 | O=C(CCC1CCCN(S(=O)(=O)c2ccccc2F)C1)NC1CCCCC1 (centres undefined)
652 | COC(=O)c1sc2ccccc2c1S(=O)(=O)N1CCC(C(N)=O)(N2CCCCC2)CC1
1090 | CCCN1C(=O)Cc2c(C)nc(-c3cccc(F)c3)nc21
573 | Cc1oc2ncn(CCC(=O)N3CCN(c4ccccn4)CC3)c(=O)c2c1C
660 | Cc1cc(=O)n(CC(=O)NCc2ccccc2Br)c(N2CCOCC2)n1
570 | Cn1ncc2c(N3CCSCC3)nc(C(=O)NCc3cccnc3)nc21
915 | CCc1ccc(CNC(=O)c2nc3cccnc3n(CC)c2=O)cc1
953 | CCOc1ccccc1C(=O)Nc1cccn2c(C3CCC3)nnc12
708 | Cn1cccc1Cc1nnc(SCC(=O)NCc2ccco2)n1Cc1ccccc1

RP-LC retention time [s] | Compound
709 | COCCOCC1CCN(C(=O)COc2cccc(OC)c2)CC1
1060 | COc1ccc(-n2ncc3c(=O)n(Cc4nc(-c5ccccc5C)no4)cnc32)cc1
625 | CCNC(=O)Nc1ccc2c(c1)CN(S(=O)(=O)c1cn(C)cn1)CCO2
1070 | COc1ccc(-n2nnc(-c3nc(-c4cccc(OC)c4)cs3)c2N)cc1
908 | Cc1ccc(-c2noc(-c3nnn(Cc4nc(-c5cccc(Cl)c5)oc4C)c3C)n2)cc1
1010 | Cc1cc2nc(C(=O)Nc3ccc(F)c(C)c3)cc(C)n2n1
1310 | CCOC(=O)c1cc([N+](=O)[O-])sc1NC(=O)c1ccc(Cl)s1
607 | O=C(c1ccc(-c2ccc(N3CCCCC3)nc2)cc1)N1CCOCC1
648 | Oc1cc2c(c(Cl)c1O)CCNC[C@@H]2c1ccccc1
1110 | CCSc1nc2ccc(NS(=O)(=O)c3ccc(F)c(Cl)c3)cc2s1
697 | O=C(NC1CCCC1)N1CCC[C@H]1c1nc(-c2ccccc2)n[nH]1
630 | O=C(Cn1c(=O)n(Cc2cccnc2)c(=O)c2ncccc21)c1ccc2c(c1)CCCC2
702 | O=C(NCc1cccnc1)C1CCN(S(=O)(=O)c2cc(-c3noc(C4CCC4)n3)cs2)CC1
796 | CCn1nc(CNC(=O)c2ccccn2)c2ccccc21
942 | Cc1ccccc1-n1ccn(Cc2nc(-c3ccc(F)c(Cl)c3)no2)c(=O)c1=O
735 | COc1cc(OC)c(NC(=O)CCSc2nc3c(=O)n(C)c(=O)n(C)c3n2C)cc1Cl
954 | O=C(Nc1ccc(F)cc1)C(=O)c1cn(CC(=O)N2CCCC2)c2ccccc12
880 | COc1ccc(NC(=O)C2CCN(S(=O)(=O)c3ccc4c(c3)sc(=O)n4C)CC2)cc1Cl
637 | O=C(Cn1cnc2nc(N3CCC(C(=O)NC4CC4)CC3)sc2c1=O)Nc1ccc2c(c1)OCO2
718 | Cc1cc(C(=O)NOCCO)c(Nc2ccc(I)cc2F)n(C)c1=O
586 | CCOc1ccc(C(=O)NCCCN2CCN(c3ccccc3)CC2)cc1
1220 | Cc1cc(C(=O)NC2CCCCC2)nc2cc(-c3cccs3)nn12
821 | CCOC(=O)c1ccccc1NC(=O)Cn1nc2n(c1=O)CCCCC2

RP-LC retention time [s] | Compound
854 | Fc1ccc(C2Cn3nnc(-c4nc(-c5ccccn5)no4)c3CO2)cc1 (centres undefined)
627 | Cc1ccn2cc(C(=O)NC3CCCCC3)nc2c1
749 | COc1cccc(C(=O)N2CCC3(C2)C(=O)N(C)c2ccccc23)c1OC (centres undefined)
1050 | CCc1cc(-c2csc(S(=O)(=O)Nc3ccc(C)cc3Br)c2)on1
658 | COC1CCC12CCN(C(=O)CC1CCN(C(C)=O)CC1)CC2 (centres undefined)
699 | CCNC(=O)C1CCCN(S(=O)(=O)c2cc(OC)ccc2OC)C1 (centres undefined)
1050 | CCc1ccccc1NC(=O)CSc1nnc2c3cc(-c4ccc(C)c(C)c4)nn3ccn12
768 | CCc1csc(-c2cn(CC(=O)NCc3cccc(C(F)(F)F)c3)cn2)n1
616 | CS(=O)(=O)N1CCC(C(=O)NCc2ccsc2)CC1
546 | CCN(CC)c1ccc(CNC(=O)C2CCc3nc(N4CCCCC4)ncc3C2)cc1 (centres undefined)
984 | O=C(NC1CCCCC1)N1CCCC1c1nc(-c2cccc(F)c2)no1 (centres undefined)
638 | CC1CCN(Cc2csc(N3CCN(C(=O)c4ccc(C#N)cc4)CC3)n2)CC1
829 | O=C(CN1CCN(Cc2ccc(F)cc2)C(=O)C1=O)N1CCN(c2cccc(Cl)c2)CC1
578 | CNC(=O)[C@@H]1CN(C(=O)Cn2c(=O)oc3ccccc32)C[C@H]1c1n[nH]c(C)n1
674 | Cc1nnc(-c2ccc3ccn(CC(=O)N4CCN(C(=O)c5ccco5)CC4)c3c2)o1
559 | CCN(CC)CCCNC(=O)CCc1c(-c2ccc(Br)cc2)nc2ccccn12
610 | Cc1cc(C)n(-c2ccnc(N3CCC(C(=O)NCc4ccccn4)CC3)n2)n1
853 | Cc1cc(Cl)ccc1S(=O)(=O)N1CCCC(Cn2cnc3cccnc32)C1 (centres undefined)
707 | CC(=O)NCc1nc(-c2ccc3c(c2)nc(C)c(=O)n3C2CCCC2)no1
910 | O=C(NC1CCCC1)C1CCCN(S(=O)(=O)Cc2ccc(Cl)cc2)C1 (centres undefined)
